From DBAASP
In brackets after ≈: the same amount, converted by molar mass.

Key:
Experiment in all cases: ≥ marks a high value that may be exact or a test limit, other limits are often not marked, values filed in µg/mL are converted to µM
[1] = tested on: Pseudomonas aeruginosa CMCCB 1010
[2] = tested on: Candida albicans ATCC 2002
[3] = tested on: Candida parapsilosis ATCC 22019
[4] = tested on: Klebsiella pneumoniae ATCC 700603
[5] = tested on: Escherichia coli ATCC 25922
Escherichia coli IS37# = tested on: Escherichia coli IS37#
Escherichia coli IS117# = tested on: Escherichia coli IS117#
[6] = tested on: Staphylococcus aureus ATCC 25923
[7] = tested on: Staphylococcus aureus IS37#
[8] = tested on: Enterococcus faecalis ATCC 29212
[9] = tested on: Staphylococcus aureus IS10#
[10] = tested on: Enterobacter cloacae ATCC 13047
[11] = tested on: Pseudomonas aeruginosa ATCC 27853
[12] = tested on: Candida albicans ATCC 90028
Shigella dysenteriae = tested on: Shigella dysenteriae
Candida albicans = tested on: Candida albicans
[13] = tested on: Mycobacterium tuberculosis
[14] = tested on: Mycobacterium tuberculosis H37Rv
[15] = tested on: Pseudomonas aeruginosa ATCC 9027
Candida glabrata = tested on: Candida glabrata
Streptococcus agalactiae = tested on: Streptococcus agalactiae
[16] = tested on: Escherichia coli DH5alpha
[17] = tested on: Kocuria rhizophila DSM 348
[18] = tested on: Franconibacter helveticus DSM 18396
[19] = tested on: Bacillus subtilis DSM 347
[20] = tested on: Klebsiella pneumoniae ATCC 10031
[21] = tested on: Staphylococcus aureus ATCC 6538
[22] = tested on: Escherichia coli ATCC 11219
[23] = tested on: Pseudomonas aeruginosa ATCC 13388
[24] = tested on: Salmonella enterica subsp. enterica serovar Typhimurium ATCC 14028
[25] = tested on: Staphylococcus aureus ATCC 29213
[26] = tested on: Bacillus cereus NCDC 0240
[27] = tested on: Listeria monocytogenes ATCC 19111
[28] = tested on: Staphylococcus aureus NCDC 0111
[29] = tested on: Acinetobacter johnsonii NCDC 0072
[30] = tested on: Escherichia coli MTCC 0723
[31] = tested on: Pseudomonas aeruginosa NCDC 0105
[32] = tested on: Escherichia coli BW25113 ΔsbmA
[33] = tested on: Escherichia coli BW25113 ΔwaaG
Escherichia coli BW25113 = tested on: Escherichia coli BW25113

CC[C@H](C)[C@H](NC(=O)[C@H](CC(C)C)NC(=O)[C@@H]1CCCN1C(=O)[C@H](Cc1ccccc1)NC(=O)[C@@H](N)Cc1ccccc1)C(=O)N[C@@H](C)C(=O)NCC(=O)N[C@@H](CC(C)C)C(=O)N[C@@H](C)C(=O)N[C@@H](C)C(=O)N[C@@H](CCCN=C(N)N)C(=O)N[C@@H](Cc1ccccc1)C(=O)N[C@@H](CC(C)C)C(=O)N1CCC[C@H]1C(=O)N[C@@H](CCCCN)C(=O)N[C@H](C(=O)N[C@@H](Cc1ccccc1)C(=O)N[C@H]1CSSC[C@@H](C(=O)O)NC(=O)[C@H](CCCN=C(N)N)NC(=O)[C@H](CCCCN)NC(=O)[C@H]([C@@H](C)O)NC(=O)[C@H]([C@@H](C)CC)NC(=O)[C@H](CO)NC1=O)[C@@H](C)CC [FFPLIAGLAARFLPKIFCSITKRC]
MIC [1]: 1.84 µM (≈ 5 µg/mL)
MIC [2]: 1.84 µM (≈ 5 µg/mL)
MIC [3]: 7.37 µM (≈ 20 µg/mL)
MIC [4]: 0.921 µM (≈ 2.5 µg/mL)
MIC [5]: 0.368 µM (≈ 0.999 µg/mL)
MIC (Escherichia coli IS37#): 0.921 µM (≈ 2.5 µg/mL)
MIC (Escherichia coli IS117#): 3.69 µM (≈ 9.99 µg/mL)
MIC [6]: 1.84 µM (≈ 5 µg/mL)
MIC [7]: 1.84 µM (≈ 5 µg/mL)
MIC [8]: 1.84 µM (≈ 5 µg/mL)
MIC [9]: 3.69 µM (≈ 9.99 µg/mL)
MIC [10]: 0.921 µM (≈ 2.5 µg/mL)
MIC [11]: 3.69 µM (≈ 9.99 µg/mL)
MIC [12]: 3.69 µM (≈ 9.99 µg/mL)
MIC (Shigella dysenteriae): 3.69 µM (≈ 9.99 µg/mL)

CC[C@H](C)[C@H](NC(=O)[C@H](CC(C)C)NC(=O)[C@H](CO)NC(=O)[C@@H]1CCCN1C(=O)[C@@H](NC(=O)[C@H](C)NC(=O)[C@H](CCCCN)NC(=O)[C@H](CCSC)NC(=O)[C@H](C)NC(=O)[C@H](CC(C)C)NC(=O)[C@H](CCCCN)NC(=O)CNC(=O)[C@H](CC(C)C)NC(=O)[C@H](Cc1ccccc1)NC(=O)CNC(=O)[C@H](Cc1c[nH]c2ccccc12)NC(=O)[C@@H](N)Cc1ccccc1)C(C)C)C(=O)NCC(=O)NCC(=O)N[C@@H](CC(N)=O)C(=O)N[C@@H](CCCCN)C(=O)N[C@@H](CO)C(=O)N[C@@H](CO)C(=O)N[C@@H](CO)C(=O)N[C@@H](CCCCN)C(=O)O [FWGFLGKLAMKAVPSLIGGNKSSSK]
MIC (Candida albicans): 12.5 µM (≈ 32.8 µg/mL)
MIC [5]: 24 µM (≈ 63 µg/mL)
MIC [13]: 30.5 µM (≈ 80 µg/mL)
MIC [14]: 21.4 µM (≈ 56.2 µg/mL)
MIC [6]: 10 µM (≈ 26.2 µg/mL)
MIC [15]: 15 µM (≈ 39.4 µg/mL)
MIC (Candida glabrata): ≥ 50 µM
MIC (Streptococcus agalactiae): 15 µM (≈ 39.4 µg/mL)

CC[C@H](C)[C@H](NC(=O)CN)C(=O)NCC(=O)N[C@@H](CCCCN)C(=O)N[C@@H](Cc1ccccc1)C(=O)N[C@@H](CC(C)C)C(=O)N[C@@H](Cc1cnc[nH]1)C(=O)N[C@@H](CO)C(=O)N[C@@H](C)C(=O)N[C@@H](CCCCN)C(=O)N[C@@H](CCCCN)C(=O)N[C@@H](Cc1ccccc1)C(=O)NCC(=O)N[C@@H](CCCCN)C(=O)N[C@@H](C)C(=O)N[C@@H](Cc1ccccc1)C(=O)N[C@@H](C)C(=O)NCC(=O)N[C@@H](CCC(=O)O)C(=O)N[C@H](C(=O)N[C@@H](CCSC)C(=O)N[C@@H](CC(N)=O)C(=O)N[C@@H](CO)C(=O)O)[C@@H](C)CC [GIGKFLHSAKKFGKAFAGEIMNS]
MIC [16]: ≥ 64 µM
MIC [17]: ≥ 64 µM
MIC [18]: ≥ 64 µM
MIC [19]: 8 µM (≈ 19.5 µg/mL)

CC[C@H](C)[C@H](NC(=O)CN)C(=O)N[C@@H](Cc1cnc[nH]1)C(=O)N[C@@H](C)C(=O)N[C@H](C(=O)N[C@@H](CC(C)C)C(=O)N[C@@H](CCCCN)C(=O)N[C@@H](Cc1ccc(O)cc1)C(=O)NCC(=O)N[C@@H](CCCCN)C(=O)N1CCC[C@H]1C(=O)N[C@@H](CO)C(N)=O)[C@@H](C)CC [GIHAILKYGKPS]
MIC [20]: 30 µM (≈ 38.5 µg/mL)
MIC [21]: 5 µM (≈ 6.41 µg/mL)
MIC [22]: ≥ 50 µM
MIC [23]: ≥ 50 µM
MIC [24]: > 50 µM

CC[C@H](C)[C@H](NC(=O)[C@H](Cc1c[nH]c2ccccc12)NC(=O)[C@@H]1CCCN1C(=O)[C@H](CC(C)C)NC(=O)CN)C(=O)N[C@@H](CC(C)C)C(=O)N[C@@H](CC(C)C)C(=O)N[C@@H](CCCN=C(N)N)C(=O)N[C@@H](Cc1c[nH]c2ccccc12)C(=O)N[C@@H](CC(C)C)C(=O)N[C@@H](Cc1ccccc1)C(=O)N[C@@H](Cc1ccccc1)C(=O)N[C@@H](CCCN=C(N)N)C(=O)NCC(=O)O [GLPWILLRWLFFRG]
MIC [25]: 3 µM (≈ 5.32 µg/mL)
MIC [26]: ≥ 100 µM
MIC [27]: 6 µM (≈ 10.6 µg/mL)
MIC [28]: 25 µM (≈ 44.4 µg/mL)
MIC [24]: 100 µM (≈ 177 µg/mL)
MIC [11]: > 200 µM
MIC [29]: ≥ 200 µM
MIC [30]: ≥ 200 µM
MIC [31]: ≥ 200 µM

CC[C@H](C)[C@H](N)C(=O)N[C@@H](CCCN=C(N)N)C(=O)N1CCC[C@H]1C(=O)N[C@@H](CCCN=C(N)N)C(=O)N1CCC[C@H]1C(=O)N1CCC[C@H]1C(=O)N[C@@H](CCCN=C(N)N)C(=O)N[C@@H](CC(C)C)C(=O)N1CCC[C@H]1C(=O)N[C@@H](CCCN=C(N)N)C(=O)N1CCC[C@H]1C(=O)N[C@@H](CCCN=C(N)N)C(=O)N1CCC[C@H]1C(=O)N[C@@H](CCCN=C(N)N)C(=O)N1CCC[C@H]1C(=O)N[C@@H](CC(C)C)C(=O)N1CCC[C@H]1C(=O)N[C@@H](Cc1ccc(O)cc1)C(=O)N1CCC[C@H]1C(=O)N[C@@H](CCCN=C(N)N)C(=O)N1CCC[C@H]1C(=O)O [IRPRPPRLPRPRPRPLPYPRP]
MIC [5]: 8 µM (≈ 20.7 µg/mL)
MIC [32]: ≥ 32 µM
MIC [33]: 4 µM (≈ 10.3 µg/mL)
MIC (Escherichia coli BW25113): 8 µM (≈ 20.7 µg/mL)
